Source: patent publication US7803377B2, “Anti-DLL4 antibodies and methods using same” (Genentech, Inc., priority 2006, dated 2010)

Columns and labels:
[1] = system: non-small lung cancer H1299 cells; test: Tumor model H1299; type: in vivo, mouse; conditions: 5 mg/kg, IP, twice weekly after establishment of the tumors
Protocol: (§1) Tumor models. Beige nude female mice of 8- to 10-week-old were used. To obtain subcutaneous tumors, mice were injected with 0.1 ml cell suspension containing 50% matrigel (BD Bioscience) into the right posterior flank. 5×10^6 human colon cancer HM7 cells, 10×10^6 human colon carcinoma Colo205 cells, 10×10^6 human lung carcinoma Calu6 cells, 10×10^6 human lung carcinoma MV-522 cells, 10×10^6 mouse leukemia WEHI-3 cells, 10×10^6 mouse lymphoma EL4 cells, 10×10^6 human ovarian cancer SK-OV-3 X1 cells, 10×06 mouse lung cancer LL2 cells, 10×10^6 leukemia/lymphoma EL4 cells, or 10×10^6 non-small lung cancer H1299 cells were injected into each mouse. For human melanoma MDA-MB-435 model, mice were injected into the mammary fat pad with 0.1 ml cell (5×10^6) suspension containing 50% matrigel. […] For the following tumor models, each test mouse received a subcutaneous tumor fragment (1 mm^3) implanted in the right flank: non-small lung cancer SKMES-1, human breast cancer MX-1, human colorectal cancer SW620 and human adenocarcinoma LS174T. The tumor growth was quantitated by caliper measurements. Tumor volume (mm^3) was determined by measuring the length (l) and width (w) and calculating the volume (V=lw2/2). 10 to 15 animals were included in each group. Statistical comparison of treatment groups was performed using two-tailed Student's t-test. […]

[2] = system: SK-OV-3X1, LL2, EL4, H11299, SKMES-1, MX-1, SW620 and LS174T models; test: Tumor models, combination of YW26.82 with anti-VEGF where tested; type: in vivo, mouse; conditions: YW26.82 5 mg/kg and anti-VEGF 5 mg/kg, IP, twice weekly; models where the combination was tested
Protocol: as §1

retinal vasculature = test: Mouse neonatal retina study; type: in vivo
Protocol: Mouse neonatal retina study. […] Eyes were collected on P5, and fixed with 4% PFA in PBS overnight. The dissected retinas were blocked with 10% goat serum in PBST for 3 hrs, then incubated overnight with primary antibodies. The primary cocktail included biotinylated isolectin B4 (25 μg/ml, Bandeiraea simplicifolia; Sigma), and one of the following: rabbit anti-mouse Ki67 (1:1, ready-to-use, clone Sp6, Lab Vision), or mouse Cy3-conjugated anti-alpha SMA (1:2000, Sigma-Aldrich), with 10% serum in PBLEC (1% Triton X-100, 0.1 mM CaCl2, 0.1 mM MgCl2, 0.1 mM MnCl2, in PBS pH6.8). Retinas were then washed in PBST, and incubated overnight with secondary antibody combination of Alexa Fluor® 488 streptavidin (1:200; Molecular Probes) and Cy3-anti-rabbit IgG (1:200; Jackson ImmunoResearch). After staining was completed, retinas were post fixed with 4% PFA in PBS. All overnight incubations were done at 4° C. Images of flat mounted retinas were captured by confocal fluorescence microscopy.
Early postnatal mouse retina develops a stereotypic vascular pattern in a well-defined sequence of events (Stone, J. & Dreher, Z. J Comp Neurol 255, 35-49 (1987); Gerhardt, H. et al. J Cell Biol 161, 1163-77 (2003); Fruttiger, M. Invest Opthalmol Vis Sci 43, 522-7 (2002)). […] Therefore, this hyperproliferative phenotype of retinal ECs upon DLL4 blockade in neonatal mice corroborated the in vitro findings.

[3] = system: human ovarian cancer SK-OV-3 X1 cells; test: Tumor model SK-OV-3X1; type: in vivo, mouse; conditions: 5 mg/kg, IP, twice weekly after establishment of the tumors
Protocol: as §1

[4] = system: adult retinal vasculature; test: Adult mouse retina vasculature (ASMA and isolectin staining); type: in vivo; conditions: 8 week-old mice, 10 mg/kg, twice weekly for two weeks
Source text: FIG. 8: DLL4-mediated Notch signaling regulated EC differentiation. a, The lumen-like structures (white arrows) formed by HUVECs growing in fibrin gels were lost in the presence of anti-DLL4 antibody or DBZ. Instead, the spouts were highly packed with cells (black arrows). b, Regulation of TGFβ2 by Notch. Quantitative PCR analysis of TGFβ2 expression in response to, Notch blockade in 3-D fibrin gel culture of HUVECs for (7 d) by anti-DLL4 antibody or DBZ (left), or Notch activation in 2-D culture of HUVECs (36 hr) by immobilized DLL4 (right). c, Anti-DLL4 antibody blocks arterial development. Confocal images of neonatal mouse retinas stained with alpha smooth muscle actin (ASMA) and isolectin. Neonatal mice were treated as described in FIG. 1d. d, Confocal images of adult mouse retinas stained with ASMA and isolectin. 8 week-old mice were treated with PBS or anti-DLL4 antibody (10 mg/kg, twice weekly) for two weeks.
(§2) Thus, DLL4/Notch signaling is critical during active angiogenesis, but plays a less important role in normal vessel maintenance.

[5] = Tolerability in tumor-bearing mice; type: in vivo, mouse; conditions: 10 mg/kg twice per week for up to 8 weeks
Source text: as §2

EL4 mouse lymphoma tumor = test: Tumor vascular labeling and immunohistochemistry (EL4 tumors); type: in vivo
Protocol: Tumor vascular labeling and immunohistochemistry. Mice were anesthetized with Isoflurane. FITC-labeled Lycopersicon esculentum Lectin (150 μg in 150 μl of 0.9% NaCl; Vector Laboratories) was injected i.v. and allowed to circulate for 5 min before systemic perfusion. The vasculature was perfused transcardially with 1% PFA in PBS for 3 min. Tumors were removed and post fixed by immersion in the same fixative for 2 hr, followed by an incubation in 30% sucrose overnight for cryoprotection, then embedded in OCT. Sections (4 μm thickness) were stained with anti-mouse CD31 (1:50, BD Pharmingen), followed by Alexa 594 goat anti-rat IgG (1:800, Molecular Probes).
In light of the tumor growth inhibition, we used the EL4 mouse lymphoma tumor model for vascular histology studies.
Since in vitro blocking of DLL4/Notch pathway impaired the formation of lumen-like structure by ECs (FIG. 8a), it was investigated whether treatment with anti-DLL4 Mab caused similar defect in the tumor vasculature and affected efficient blood flow. […] Given the critical role of DLL4/Notch signaling in AV differentiation, both in embryos and early postnatal retinas, anti-DLL4 Mab could impact cell fate specification of tumor ECs and cause defective directional blood flow. […] Further studies utilizing vascular imaging techniques are needed to gain insights into the precise vascular defects.

[6] = neonatal CD1 mice, 10 mg/kg i.p. on P1 and P3, eyes collected P5
[7] = neonatal mice, 10 mg/kg i.p. on P1 and P3

Q: What does the source list for “YW26.82: affinity matured anti-DLL4 monoclonal antibody; HVR-H1/H2/H3 SEQ ID NO:1, 8, 9; HVR-L1/L2/L3 SEQ ID NO:10, 11, 18”?
A: tumor growth, single agent [1]: inhibited tumor growth alone; efficacy in combination with anti-VEGF [2]: enhanced efficacy; Ki67 labeling in retinal ECs (retinal vasculature; [6]): significant increase of Ki67 labeling in ECs; accumulation of ECs in neonatal retina (retinal vasculature; [6]): massive accumulation of ECs; anti-α smooth muscle actin (ASMA) staining of retinal arteries (retinal vasculature; [7]): completely absent; pattern of radially alternating arteries and veins in retina (retinal vasculature; [7]): severely disrupted; tumor growth, single agent [3]: inhibited tumor growth alone; impact on adult retinal vasculature [4]: no visible impact on adult retinal vasculature; weight loss or animal death [5]: no apparent weight loss or animal death; endothelial cell density (anti-CD31) in tumor sections (EL4 mouse lymphoma tumor; EL4 tumors): dramatic increase in endothelial cell density; FITC-lectin labeling of tumor vessels (vascular perfusion) (EL4 mouse lymphoma tumor; systemic perfusion with FITC-lectin, EL4 tumor sections): marked reduction of lectin labeling of tumor vessels
